Results: patent publication US8563578B2, “Antitumor properties of NO modified protease inhibitors” (Onconox APS, priority 2008, dated 2013)

What was measured:
C6 rat astrocytoma = assay: Cell viability, C6 cells; type: cell-based; conditions: read-out: reduction of cell viability
From the text: Rat glioma C6 and human glioblastoma U251 cell lines were a kind gift from Dr. Pedro Tranque (Universidad de Castilla-La Mancha, Albacete, Spain), murine melanoma B 16, and human adenocarcinoma HeLa, were a kind gift from Dr. Sinisa Radulovic (Institute for Oncology and Radiology of Serbia, Belgrade, Serbia) while mouse fibrosarcoma L929 was obtained from the European Collection of Animal Cell Cultures (Salisbury, UK). Human breast HCC1419 and prostate PC-3 cells were purchased from LGC Promochem srl (Venezia, Italy). Primary mouse fibroblasts and rat astrocytes were prepared as described (Mijatovic et al. 2004). […]
Reduction of 3-4,5-dimethylthiazol-2-yl)-2,5-diphenyltetrazolium bromide (MTT) to formazan depends on mitochondrial activity of cultured cells, absorption of crystal violet dye correlates with the number of adherent, live cells, while the release of cytosolic lactate dehydrogenase (LDH) indicates the disruption of membrane integrity caracteristic for necrotic cells. […] Mitohondrial-dependent production of formazan and intensity of absorbed crystal violet by adherent cells were assessed by an automated microplate reader at 570 nm, while the pyruvate-mediated conversion of 2,4-dinitrophenylhydrazine into visible hydrazone precipitate in LDH assay was measured at 492 nm. […]
FIG. 2. […] Cell viability was then evaluated by CV test. […]

B16 cells = assay: MBP expression by cell-based ELISA, B16; set-up: species or system mouse; conditions: 18.8 μM, 24 h
From the text: A slightly modified method for cell-based ELISA (cELISA) by Versteeg (Versteed et al., 2000) was used to measure the expression of galactocerebroside, glial fibrilar acidic protein (GFAP), myelin basic protein (MBP), cyclin D3, p53 and p-AKT. Briefly, at the end of cultivation period cells were fixed in 4% paraformaldehyde, endogenous peroxydase was quenched with 1% H2O2 in PBS containing 0.1% Triton X-100 (PBST), and unspecific binding of antibodies blocked with PBST solution containing 10% FCS. […] The absorbance at 450 nm was measured in an automated microplate reader 15 min after incubation with peroxydase substrate TMB and subsequently to addition of 0.1 M HCl. To facilitate comparison between treatments, the obtained absorbances were corrected for the cell number that was determined by crystal violet staining, as described in the original protocol. […]
FIG. 5. […] Cell morphology was assessed by light microscopy (A). Markers of cell differentiation of C6 and B16 cells, galactocerebroside, GFAP and MBP were determined by cELISA and melanin and tyrosinase activity were determined as described in material and methods (B). Cyclin D3 and p53 expression were evaluated by cELISA (C, upper panels), immunocytochemistry (C, middle panel) and Western blot (C, lower panel). […]

For CC(C)(C)NC(=O)[C@@H]1C[C@@H]2CCCC[C@@H]2CN1C[C@@H](O[N+](=O)[O-])[C@H](Cc1ccccc1)NC(=O)[C@H](CC(N)=O)NC(=O)c1ccc2ccccc2n1 [Saq-NO2, nitric ester of Saquinavir], the cytotoxicity at 18.8 µM (C6 rat astrocytoma) was roughly 50% and the MBP expression (B16 cells) was “mild elevation”.
